In a melting point compilation (Tetko et al.; mined from patent text by program, amines drawn as free bases though some values may be those of a salt):

SMILES | melting point
CC(C)NCC(O)c1ccc(OCc2ccccc2)c(C(N)=O)c1 (centres undefined) | 135 to 138 °C
CSc1ccc(COC(=O)N2CCN(CC3(C)Cn4cc([N+](=O)[O-])nc4O3)CC2)cc1 (centres undefined) | 118 to 120 °C
Cc1cc(CCCCCOc2ccc(-c3nccs3)cc2)on1 | 78 to 80 °C
Nc1nc(Cl)c(NC=O)c(N[C@@H]2CC=C(CO)C2)n1 | 148 to 150 °C
COc1ccc(Oc2c(C)cc([N+](=O)[O-])cc2C)cc1C(=O)c1ccc(F)cc1 | 167 to 168 °C
NS(=O)(=O)c1cc(C(=O)O)cc([N+](=O)[O-])c1-c1ccccc1 | 119 to 121 °C
CCCC(CCC)C(=O)NCC(=O)CCCCCCCCCCCCN(N)C(=O)n1cc(F)c(=O)[nH]c1=O | 116 to 118 °C
O=C(Nc1cccc(C(=O)O)c1)OCc1cn(-c2cc3cc(C(=O)O)c(=O)[nH]c3cc2[N+](=O)[O-])cn1 | > 300 °C
COc1ccc(C(=O)c2c(-c3ccccc3)sc3cc(OC)ccc23)cc1 | 132 °C
C=C(CC)C(=O)c1ccc(OC(C)(C)C(=O)O)c(Cl)c1Cl | 88 to 89 °C
CCC(C)(Cc1cn(C)c2ccc(OC)cc12)[N+](=O)[O-] (centres undefined) | 95 to 96 °C
CN(C)C=Nc1ncc[nH]1 | 146 to 147 °C
Cc1ccc(C#N)c(OCc2ccc(OCc3nc(-c4ccccc4)oc3C)cc2)n1 | 116 to 117 °C
CC(C)c1cc(C(=O)Nc2ccc(C(=O)O)cn2)sc1C(C)C | > 300 °C
CCCCOCCOc1ccc(-c2ccc(N3CCC(C)CC3)c(C=CC(=O)O)c2)cc1 | 159 to 160 °C
CN(SN1CCOCC1)C(=O)Nc1ccc(Cl)c(Cl)c1 | 142 °C
NC(=O)c1c(F)ccc(OCc2cc3cc(C(F)(F)F)ccc3s2)c1F | 150 to 152 °C
O=[N+]([O-])c1cc(Oc2ccc(Oc3cc([N+](=O)[O-])cc(C(F)(F)F)c3)cc2)cc(C(F)(F)F)c1 | 163 °C
O=c1c2c(c3cccnc3n1-c1ccccc1)N(c1ccccc1)CC2 | 220 to 222 °C
CN(C)c1ccc(C(O)C#Cc2ccc(C(=O)O)cc2)cc1C(C)(C)C (centres undefined) | 139 °C
CC(C)c1nc(CN2C(=O)C3(COc4cc5c(cc43)OCCO5)c3ccccc32)cs1 (centres undefined) | 60 to 63 °C
CCn1cnc2c(Cl)nc(Cl)nc21 | 100 to 103 °C

SMILES | melting point
CCCCCCCCCCOc1cccc(C(=O)N(CC(=O)O)CC(=O)O)c1 | 87 to 90 °C
O=c1cc(-c2ccccc2)[nH]c(=S)[nH]1 | 266 to 267 °C
[N-]=[N+]=CC(=O)c1ccc(Br)c(S(N)(=O)=O)c1 | 152 °C
CCCCCCCCCCCCCCCCN(CCO)CCCCCCN(CCO)CCCCCCCCCCCCCCCC | 29 to 30 °C
CCCOc1cc([N+](=O)[O-])ccc1[N+](=O)[O-] | 52 to 54 °C
COC(=O)c1cn(Cc2ccc(OCc3ccccc3)cc2)cc1-c1ccccc1 | 97 to 98 °C
Cc1cccc(C(=O)Nc2c[nH]nc2C(=O)NCCF)n1 | 220 to 221 °C
FC(F)(F)c1ccc2sc(=Nc3ccccc3)sc2c1 | 122 to 123 °C
CCc1cc2c(ccc(=O)n2Cc2ccc(-c3ccccc3C(=O)O)cc2)c(CC)n1 | 238 to 240 °C
CC(=O)c1cnc2c(c1)oc(=O)n2CCc1ccccn1 | 138 to 140 °C
COc1cc(C)nc(NC(=O)NS(=O)(=O)c2cccc(NC(=O)OC(C)C)c2)n1 | 173 to 180 °C
NC(=O)CNC(=O)c1cncc(-c2cccc3cc(Cc4cccc(C(F)(F)F)c4)sc23)c1 | 122 to 123 °C
CCOC(=O)C(C(=O)NCc1ccccc1)=C1SC=CS1 | 79 to 81 °C
COc1cc(C)c(C(O)c2c(Cl)cnc(Cl)c2C(F)(F)F)c(OC)c1OC (centres undefined) | 162 to 165 °C
COC(=O)C1=C(O)c2cc(OC)ccc2S(=O)(=O)N1 | 183 °C
O=c1c(-c2cccc(C(F)(F)F)c2)ccc2ccccn12 | 110 to 111 °C
CC(=O)c1ccc(NCc2ccc3ccc4nc(C)[nH]c(=O)c4c3c2)cc1 | > 235 °C
CCCC(=O)N1N=C(c2ccc(N)cc2)c2cc(Cl)c(Cl)cc2CC1C (centres undefined) | 193 to 194 °C
COc1ccc2cc3c(Cl)c(C#N)cnc3cc2c1 | 258 to 260 °C
NC(=O)NCc1ccc(CNC(=O)[C@@H](CCCNC(N)=N[N+](=O)[O-])NC(=O)Nc2cccc3ccccc23)cc1 | 210 °C
CN1CC[C@H](c2ccc(Cl)cc2)[C@@H](O)C1 (racemic) | 99 to 100 °C
Cc1ccc(S(=O)(=O)NC(=S)NC23CC4CC(CC(C4)C2)C3)cc1 | 170 to 173 °C

SMILES | melting point
FC(F)(F)c1cccc(N2CCN(Cc3n[nH]c4ccccc34)CC2)c1 | 78 to 80 °C
O=c1c2ccc(Cl)cc2[nH]c2c(=O)n(-c3ccc(F)cc3)nc(O)c12 | 390 to 392 °C
Nc1ccc2ccc(SCc3ccccc3)nc2n1 | 167 °C
COC(=O)c1cccc2[nH]c(=O)c(C(=O)c3ccccc3)c(O)c12 | 263 to 265 °C
O=C(c1ccc(Cl)c(Cl)c1)N1CCc2cc(S(=O)(=O)N3CCN(c4cccc(Cl)c4)CC3)ccc21 | 174 to 175 °C
O=C1NC(=O)c2c1c(-c1ccccc1Cl)cc1oc3ccc(O)cc3c21 | 140 to 145 °C
Cn1nc(C(F)(F)F)c(C(=O)Nc2cccc3c2CCC3(C)C)c1Cl | 120 °C
CSCC1=C(c2ccccc2)C(=O)N(C(C)(C)C(=O)O)CO1 | 136 to 137 °C
CCCCC=CCCCCC(=O)CCCCC=CCCCCC=O | 80 to 83 °C
CCOC(=O)c1c(Cl)c2ccccc2[nH]c1=O | 186 °C
O=C(c1ccc(O)cc1)c1c(-c2ccccc2)sc2cc(O)ccc12 | 245 to 246 °C
CC(C)OC(=O)C(C)NC(=O)C(N)(CC(=O)O)NC(=O)C(C)C (centres undefined) | 176 to 178 °C
O=C(NC(=NCCSCc1cccs1)NCCCc1c[nH]cn1)c1ccccc1 | 128 to 129 °C
O=C(O)CC1CCN(c2ccc3c(NC(=O)CC4CCCCC4)c(Cl)ccc3n2)CC1 | 242 to 244 °C
O/N=C(\Cl)c1cccc(Cl)c1 | 58 to 60 °C
C#CCOc1ccc(CCNC(=O)[C@@H](O)c2ccccc2)cc1OC | 81 to 83 °C
CCN1CCCC1CNC(=O)c1c(OC)c(Cl)cc(Br)c1OC (centres undefined) | 124 to 125 °C
CCN(CC)C(=O)COc1nc(-c2ccccc2)nc2ccccc12 | 113 °C
COC(=O)C[C@@](O)(CCc1ccc(O)cc1)C(C)C | 89 to 91 °C
CC(=O)Nc1cc(NS(=O)(=O)CCl)c(Cl)cc1F | 210 °C
Cn1c(COc2ccc(CC3SC(=O)NC3=O)cc2)nc2ccc(Oc3cccc(NC(=O)NCc4ccc(C(F)(F)F)cc4)c3)cc21 (centres undefined) | 128 to 132 °C
O=C(NCC(c1ccccc1)c1ccccc1)N1CCC(C(=O)O)(c2ccccc2)CC1 | 173 to 174 °C

The remaining lines, values ahead:

melting point | SMILES
191 °C | CCN(c1cccc2cc(-c3ncc(COc4ccc(C(=O)OC)cc4)s3)[nH]c12)S(=O)(=O)c1cccs1
182 to 184 °C | O=C(Nc1nnc(SCc2ccccc2)s1)C1CC1
139 to 140 °C | CCOc1ccc(C(=O)CCC(=O)Nc2sc(-c3ccccc3)nc2-c2ccccc2)cc1OCC
234 to 237 °C | CC(C)NC1=NS(=O)(=O)c2cc(F)c(NC(C)C)cc2N1
208 to 209 °C | Cc1ccccc1N(C)c1nc(=O)c2cccnc2s1
108 to 109 °C | CCCCCCCCCCCCC1=C(O)C(=O)NC1=O
62 to 67 °C | O=C1Cc2ccccc2N1c1ccsc1
106 to 109 °C | N#Cc1ccc(C=O)c(SCc2ccccc2)c1
223 to 225 °C | Cc1cc(C)cc(-n2ncc(C(=O)O)c2C(N)=O)c1
157 to 159 °C | NS(=O)(=O)c1cccc2nonc12
76 to 80 °C | c1cc(-c2cc(C3CC3)on2)ccn1
98 to 101 °C | CC(=O)OC1OC(CF)C(OC(C)=O)C1OC(C)=O (centres undefined)
> 250 °C | CC(C)(O)Cn1cnc2c(N)nc3cc(Br)ccc3c21
127 °C | CCSc1ccc(NC=O)cc1S(N)(=O)=O
136 to 138 °C | Cc1cc(C2=C(/C=C/[C@H]3C[C@H](O)CC(=O)O3)C(C)(C)CC3(C2)SCCCS3)ccc1F (relative stereo)
89 to 90 °C | CCCCCCCCCCCCCCCCCCCCCCCCNc1ccc(C(=O)C(F)(F)F)cc1
179 to 180 °C | COc1cc(C(=O)N2Cc3ccc(C(=O)NCc4ccc(C)cc4)n3Cc3ccccc32)ccc1-c1ccccc1C

melting point | SMILES
219 to 221 °C | Nc1ccc(-c2nc3ccc(Br)cc3s2)cc1
155 to 156 °C | Cc1ccc(S(=O)(=O)Nc2cnc(C3OCCO3)cc2C)cc1
206 to 207 °C | COC1=C(C(=O)c2ccc(C)cc2)C(c2ccc(OC(F)(F)F)cc2)N(c2ccc(C)nn2)C1=O (centres undefined)
65 to 67 °C | N#CC1(CCc2ccccc2)CCCCN1C(=O)c1ccccc1 (centres undefined)
182 °C | CCCN(CCC)C(=O)CN(C(=O)CNC(=O)Nc1cccc(C)c1)c1ccccc1
216 to 217 °C | CC(=O)Nc1nccc(Oc2ccc3c(C(=O)Nc4cccc(C(F)(F)F)c4)cccc3c2)n1
168 to 170 °C | O=C(O)c1ccc(NCCCCCCOc2ccccc2)cc1
139 °C | CCOC(=O)C1=C(C)NC(N)=C(C(=O)OC(C)C)C1c1ccccc1[N+](=O)[O-] (centres undefined)
209 °C | O=C(Nc1cc(S(=O)(=O)NCCO)sc1Cl)c1cnn2c(C(F)F)cc(-c3ccc(C(F)(F)F)cc3)nc12
114 to 116 °C | CCNC(=O)c1c(F)cccc1S(=O)C(C)(C)C (centres undefined)
85 °C | CC(C)(C)c1ccc(OCC(=O)N2Cc3ccc(C(=O)NCc4cccnc4)n3Cc3ccccc32)cc1
175 °C | CCOC(=O)C(CC)Sc1nc2c([nH]1)c(=O)n(C)c(=O)n2C (centres undefined)
95 °C | CCCCCCCCCCCCCCCCC=Cc1ccc(O)c(C(=O)O)c1
211 to 212 °C | Cc1nn(-c2ccc([N+](=O)[O-])cc2F)c(=O)[nH]1
191 to 194 °C | COc1ccc(N2CCOCC2)c2sc(NC(=O)NC3CCCC3)nc12
201 to 202 °C | COc1cc(Nc2c(C#N)cnc3c(-c4ccc(CN(C)C)cc4)csc23)c(Cl)cc1Cl
